The term logD denotes the decadic logarithm of the distribution of all forms, ionised or not, between an organic phase and buffer at a given pH. Higher therefore signals higher lipophilicity. Broadly, the Papp A→B is how fast a substance crosses the layer from the apical side. Read a high Papp A→B as fast passage. In general, Papp B→A refers to how fast a substance crosses the layer from the basolateral side. For orientation: share remaining means the share of the starting amount still present when the sample was taken. One may read the solubility as the dissolved amount per volume that the medium holds. High values mean much dissolved substance, low ones little dissolved substance. As a reminder, the solubility (kinetic) is solubility judged after dilution from a stock solution rather than from solid. A word on the IC50: it is the concentration at which inhibition is half-maximal. The pKa is the pH at which an ionisable group is half protonated.

On the set-up of series [1]: method as in earlier work. The conditions noted are these: cited from earlier work.
Series [2] can be described thus: Preliminary thermal stability, heating at 100 °C for 5 min. The following applies: monitored by 1H NMR and LC-MS. The class given is physicochemical. The source says:
In addition, we checked the preliminary thermal stability of two representative 3‐oxabicyclo[3.1.1]heptanes: carboxylic acid 11b and N‐Boc amino acid 40.

A short description of another series: in vitro. The following applies: human, 90 min, no verapamil; for Papp A→B: Caco-2, pH 7.4, Papp (AB); for Papp B→A: Caco-2, pH 7.4, Papp (BA).
The nature of series [3]: Metabolic stability in human liver microsomes. The conditions noted are these: for remaining at […], 2 µM: 15 min. Type of series: in vitro ADME. As to the method:
9. Metabolic Stability in Human Liver Microsomes
The objective of this study was to determine the metabolic stability of 3 test articles (EN300- […]
in human liver microsomes at five-time points over 40 minutes using HPLC-MS. Metabolic stability is defined as the percentage of parent compound lost over time in the presence of a metabolically active test system.
Potassium phosphate monobasic (Bio-Basic, Canada; Lot #N9016010)
Potassium phosphate dibasic (Bio-Basic, Canada; Lot #MA7100050) […]
Glucose-6-phosphate dehydrogenase from baker's yeast, type XV (Sigma-Aldrich, USA; Cat […]
D-Glucose-6-phosphate sodium salt (Sigma-Aldrich, USA; Cat #G7879-1G)
NADPH tetrasodium salt (BLD Pharmatech Ltd., Cat #BD116582)
Verapamil hydrochloride (Sigma Aldrich, USA; Cat #V4629)
Niclosamide (Sigma-Aldrich, USA; Cat #N3510)
DMSO stock solutions of the tested compounds 20 mM
Gradient HPLC system (Shimadzu)
Triple quadrupole mass-detector API 3000 with TurboIonSpray Ion Source (AB Sciex, Canada) […]
Multichannel pipettors 1-30 µL, 2-125 µL, 30-850 µL (Thermo Scientific) […]
All measurements were performed using the Shimadzu HPLC system including vacuum degasser, gradient pumps, reverse phase HPLC column, column oven, and autosampler. Mass spectrometric analysis was performed using an API 3000 mass spectrometer from Applied Biosystems/MDS Sciex (AB Sciex) with Turbo V ion source and TurboIonspray interface. The […]
and system control were performed using Analyst 1.6.3 software from AB Sciex.
Microsomal incubations were carried out in 96-well plates in 5 aliquots of 30 μL each (one for each time point). Liver microsomal incubation medium comprised of phosphate buffer (100 mM, pH 7.4), MgCl2 (3.3 mM), NADPН (3 mM), glucose-6-phosphate (5.3 mM), glucose-6-phosphate dehydrogenase (0.67 units/mL) with 0.42 mg of liver microsomal protein per mL. In the control reactions, the NADPH-cofactor system was substituted with phosphate buffer. Test compounds […]
100 rpm. Five-time points over 40 minutes were analyzed. The reactions were stopped by adding 5 volumes of acetonitrile with internal standard to incubation aliquots, followed by protein sedimentation by centrifuging at 5500 rpm for 5 min. Each reaction was performed in duplicates.
Supernatants were analyzed using the HPLC system coupled with a tandem mass spectrometer.
The elimination constant (kel), half-life (t1/2), and intrinsic clearance (Clint) were determined in a plot of […] versus time, using linear regression analysis:1
1 In order to indicate the quality of the linear regression analysis, the R2 (determination coefficient) values are provided.
In some cases, the last time point is excluded from the calculations to ensure acceptable logarithmic linearity of decay.
(In general: Liver microsomes are a subcellular fraction often used to study metabolism.)

The nature of series [4]: Kinetic solubility in phosphate-buffered saline, pH 7.4. Type of series: physicochemical. The following applies: for solubility at 2 h: PBS solubility. How it is done: page 239: 7. […] The data […] analysis software. […] page 240: Methods Kinetic solubility assay was performed according to Enamine's aqueous solubility SOP. Briefly, […] theoretical concentration of 400 μM in duplicates in phosphate-buffered saline pH 7.4 […] The experimental compound dilutions in PBS were further allowed to equilibrate at 25 °C on a thermostatic shaker for two hours and then filtered through HTS filter plates using a vacuum manifold. The filtrates of test […] prepared to theoretical concentrations of 0 μM (blank), 10 μM, 25 μM, 50 μM, 100 μM, and 200 […] Ondansetron was used as a reference compound to control proper assay performance. 200 μL of each sample was transferred to a 96-well plate and measured in the 230-550 nm range with a 5 nm step. The concentrations of compounds in PBS filtrate are calculated using a dedicated Microsoft Excel calculation script. Proper absorbance wavelengths for calculations are selected for each compound manually based on absorbance maximums (absolute absorbance unit values for the minimum and maximum concentration points within the 0 - 3 OD range). Each final dataset is visually evaluated by the operator, and goodness of fit (R2) is calculated for each calibration curve. […] close to the upper limit of the range may have higher actual solubility (e.g. 5'-deoxy-5- fluorouridine). The calibration curves are shown in Appendix*. […] Compound ID PBS solubility, pH 7.4, μM SE […] Ondansetron 128 126 127** 1.1 EN300-7362818 6 6 6 0.2 (Sonidegib) BCHep-Sonidegib (50) 5 3 4 0.9 Table S3. 2nd batch PBS solubility, pH 7.4, μM Compound ID SE […] Ondansetron 124 124 124** 0.1 EN300-45381956 (51) 34 34 34 0.2 *Goodness of fit (R2) in all titration curves as well as the variations between repeat measurements indicates a high quality of the experimental data in the current batch of test articles. **Ondansetron solubility data are consistent with those previously obtained. […]

The test system of series [5] is Hedgehog signaling pathway. The following applies: Mus musculus, NIH3T3, read-out: IC50 (HH signal): inhibition of the Hedgehog signaling pathway, Gli reporter NIH3T3 cell line.
Series [6] can be described thus: Experimental pKa of carboxylic acids. Type of series: physicochemical. The conditions noted are these: for pKa: read-out: pKa (exp.). The text has this: We also studied the influence of the replacement of the methylene group for the oxygen atom in the bicyclo[3.1.1]heptane skeleton on the electronic properties. For that, we experimentally measured pK a values of the bicyclo[3.1.1]heptane carboxylic acid 49, the 3‐oxabicyclo[3.1.1]heptane carboxylic acid 18b, and meta‐methyl benzoic acid (48) as a reference (Figure 5).^[ [34] ^]

Setting [7] is: Table S4, 1st batch, incubation 1.
[8] abbreviates: Table S4, 1st batch, incubation 2.
Setting [9] is: Table S4, 1st batch, incubation 3.
The mark [10] stands for this setting: both sexes, human, liver microsomes, pH 7.4, Table S6, 1st batch, 2 µM.
The mark [11] stands for this setting: 25 °C, pH 7.4, aqueous buffer, kinetic from dmso stock, pH 7.4, Incubation 1.
Where [12] appears, read: 25 °C, pH 7.4, aqueous buffer, kinetic from dmso stock, pH 7.4, Incubation 2.
[13] abbreviates: 25 °C, pH 7.4, aqueous buffer, kinetic from dmso stock, pH 7.4, Mean.

≈ marks a conversion by molar mass, not a printed value. Where “and” joins values, the source holds several entries; their conditions need not be identical. Identical values can stand only once. Like-named read-outs stand apart in the source and are kept apart here.

`COC(=O)Nc1nc2ccc(C(=O)c3ccccc3)cc2[nH]1` [Mebendazole]: the D came out at 8.21E+02 under setting [7]; 8.87E+02 under setting [8]; 8.17E+02 under setting [9]; 9.52E+02 (Table S5, 2nd batch, incubation 1); 1.14E+03 (Table S5, 2nd batch, incubation 2); 8.63E+02 (Table S5, 2nd batch, incubation 3). The logD at 1 h in “physchem” (pH 7.4, LogD, pH 7.4) was 3.06.
For `Cc1cccc(C(=O)O)c1` [Compound 48, meta‐methyl benzoic acid], in series [1], the “pKa (exp.)” value is 4.27 and 4.3.
Consider `CC(C)(C)OC(=O)NC12COCC(C(=O)O)(C1)C2` [Compound 40], for which the thermal stability result in series [2] was “remained stable”.
On to `CC(C(=O)O)c1cccc(C(=O)c2ccccc2)c1` (centres unmarked) [Ketoprofen], for which the apical-to-basolateral permeability (Papp A→B) in the series “in vitro” (Mean, 10 µM) was found to be 21.8 ×10⁻⁶ cm/s; in the series “in vitro” (replicate 1, 10 µM), 19.8 ×10⁻⁶ cm/s; in “in vitro” (replicate 2, 10 µM) it was 23.8 ×10⁻⁶ cm/s. For the same molecule, the basolateral-to-apical permeability (Papp B→A) in the series “in vitro” (Mean, 10 µM) amounted to 18.7 ×10⁻⁶ cm/s; in the series “in vitro” (replicate 1, 10 µM), 19.5 ×10⁻⁶ cm/s; in “in vitro” (replicate 2, 10 µM) it was 17.9 ×10⁻⁶ cm/s.
On to `O=C(O)Cc1ccccc1Nc1c(Cl)cccc1Cl` [Diclofenac], for which the “% Remaining, Mean of 2” value stood at 4% in series [3] (Table S6, 1st batch, 25 min, 2 µM); 11% in series [3] (Table S7, 2nd batch, 25 min, 2 µM); 2% in series [3] (Table S7, 2nd batch, 40 min, 2 µM). In addition, the “% Remaining without cofactor, Mean of 2” value in series [3] (Table S6, 1st batch, 40 min, no NADPH) amounted to 95%. In addition, in [3] (setting [10]), the amount remaining at 7 min, 2 µM turned out to be 46%. Moreover, the fraction remaining at […], 2 µM in [3] (setting [10]) worked out at 15%; in series [3] (both sexes, human, liver microsomes, pH 7.4, Table S7, 2nd batch, 2 µM), 26%. Besides, in series [3] (both sexes, human, liver microsomes, pH 7.4, Table S7, 2nd batch, read-out: Clint), the microsomal CLint at 2 μM was found to be 223 µL/min/mg.
Consider `Cc1nccn1CC1CCc2c(c3ccccc3n2C)C1=O` (centres unmarked) [Ondansetron], for which the solubility at 2 h in series [4] (setting [11]), in series [4] (setting [12]) and in [4] (setting [13]) was 124 µM (≈ 36.4 µg/mL) throughout. The “PBS solubility, pH 7.4, Mean” value in [4] (Table S2, 1st batch) stood at 127 µM.
Consider `O=C(O)C12COCC(c3ccc(Br)cc3)(C1)C2` [Compound 11b], for which, in series [2], the thermal stability entry is “remained stable”.
In [4] (25 °C, pH 7.4, aqueous buffer, kinetic from dmso stock), `CC1CN(c2ccc(NC(=O)C34CCCC(c5ccc(OC(F)(F)F)cc5)(C3)C4)cn2)CC(C)O1` (centres unmarked) [Compound 50] yielded a kinetic solubility at 2 h of 4 µM (≈ 1.96 µg/mL). The solubility at 2 h in series [4] (setting [11]) was 5 µM (≈ 2.45 µg/mL); in series [4] (setting [12]), 3 µM (≈ 1.47 µg/mL); in [4] (setting [13]), 4 µM (≈ 1.96 µg/mL). Also, the D is 8.66E+04 under setting [7], 8.31E+04 under setting [8] and 8.70E+04 under setting [9]. Moreover, the half-life at 2 μM in series [3] (both sexes, human, human liver microsomes, pH 7.4, human liver microsomes, read-out: t1/2: experimental half-time of a metabolic decomposition) is 2 h; in [3] (both sexes, human, liver microsomes, pH 7.4, Table S6, 1st batch, read-out: t1/2), roughly 2 h. The microsomal CLint at 2 μM was 14 µL/min/mg in series [3] (both sexes, human, human liver microsomes, pH 7.4, read-out: CLint: experimental metabolic stability in human liver microsomes) and roughly 14 µL/min/mg in [3] (both sexes, human, liver microsomes, pH 7.4, Table S6, 1st batch, read-out: Clint). Also, the amount remaining at 7 min, 2 µM in series [3] (setting [10]) was 92%. The molecule also displayed a share remaining at […], 2 µM in series [3] (setting [10]) of 98%. Further, the fraction remaining at 25 min, 2 µM in series [3] (both sexes, human, liver microsomes, pH 7.4, Table S6, 1st batch, 25 min, 2 µM) amounted to 88%. Besides, the amount remaining at 40 min, 2 µM in series [3] (both sexes, human, liver microsomes, pH 7.4, Table S6, 1st batch, 40 min, 2 µM, read-out: % Remaining, Mean of 2) was determined as 78%; in series [3] (both sexes, human, liver microsomes, pH 7.4, Table S6, 1st batch, 40 min, no NADPH, read-out: % Remaining without cofactor, Mean of 2) it was 93%. In series [3] (both sexes, human, liver microsomes, pH 7.4, Table S6, 1st batch), this molecule gave a k el at 2 µM of roughly 0.0001 s⁻¹. Moreover, the pH-dependent lipophilicity (logD) at 1 h in “physchem” (pH 7.4, LogD, pH 7.4) was no less than 4.5; in “physchem” (pH 7.4, LogD, pH 7.4 (overall of 3 incubations)), no less than 4.5; in the series “physchem” (pH 7.4, logD (7.4): experimental distribution coefficient in n-octanol/phosphate-buffered saline, pH 7.4), no less than 4. The concentration for half-maximal inhibition (IC50) in [5] was determined as 616 nM.
As for `CC12CCCC(C(=O)O)(C1)C2` [Compound 49], in series [6], the “pKa (exp.)” value was found to be 5.0 and the pKa was 5.03.
Taken in the same sequence, the figures for `CC12COCC(C(=O)O)(C1)C2` [Compound 18b] were 4.2 and 4.23.

(Values after PMC12171319, “3‐Oxabicyclo[3.1.1]heptane as an Isostere of meta‐Benzene” (Angewandte Chemie (International Ed. in English), 2025).)
